This is an account of results in patent publication US20230295152A1 (SENDA BIOSCIENCES, INC., priority 2019, published 2023).

For one data set, the target named is T1, AHR (Homo sapiens, UniProt P35869).
T1 construct: other cell line with a DRE-luciferase reporter stably transfected; endogenous in cells; host or cells: HepG2 AhR-Lucia reporter cells
T1 sequence (P35869 11-848): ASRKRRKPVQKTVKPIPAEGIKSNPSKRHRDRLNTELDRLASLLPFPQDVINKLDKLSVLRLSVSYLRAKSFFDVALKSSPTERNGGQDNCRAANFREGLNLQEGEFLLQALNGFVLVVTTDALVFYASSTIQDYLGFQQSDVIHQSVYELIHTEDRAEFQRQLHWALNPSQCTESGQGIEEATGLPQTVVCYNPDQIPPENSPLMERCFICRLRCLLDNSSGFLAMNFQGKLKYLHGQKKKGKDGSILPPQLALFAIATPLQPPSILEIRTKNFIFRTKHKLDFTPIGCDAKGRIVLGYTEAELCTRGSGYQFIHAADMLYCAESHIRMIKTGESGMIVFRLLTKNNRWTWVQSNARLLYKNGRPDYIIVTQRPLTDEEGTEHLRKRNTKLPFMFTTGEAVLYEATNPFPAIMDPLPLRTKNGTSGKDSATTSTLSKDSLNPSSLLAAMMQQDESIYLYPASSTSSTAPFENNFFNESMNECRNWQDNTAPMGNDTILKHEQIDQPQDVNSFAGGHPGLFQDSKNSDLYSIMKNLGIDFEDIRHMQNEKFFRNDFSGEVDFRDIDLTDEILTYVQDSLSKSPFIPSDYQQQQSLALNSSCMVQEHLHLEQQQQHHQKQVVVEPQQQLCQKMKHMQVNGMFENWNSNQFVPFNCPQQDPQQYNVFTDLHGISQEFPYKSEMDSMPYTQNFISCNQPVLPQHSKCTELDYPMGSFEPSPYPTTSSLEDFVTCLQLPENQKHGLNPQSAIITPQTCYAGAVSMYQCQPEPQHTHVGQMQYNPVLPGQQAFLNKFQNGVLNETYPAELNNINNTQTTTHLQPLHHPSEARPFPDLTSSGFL
The data set is described as follows: DRE-Luciferase Reporter Assay, HepG2 AhR-Lucia reporter cells. To be noted: with AHR activating ligand at EC50, read-out: HepG2-Luc IC50. It counts as cell-based. In a few lines:
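DRE-luciferase reporter cells (e.g. HepG2 AhR-Lucia, 20000 cells) treated with antagonist log dilutions from 100 uM, then an AHR agonist (e.g. TCDD, kynurenine, ITE, FICZ) at its EC50 added after 1 hr. Secreted luciferase measured after 24 or 48 h (QUANTI-Luc); IC50 = concentration halving luciferase activity.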

The nature of data set [1]: Solubility Determination Assay in PBS pH 1.6 and pH 7.4. It is filed as physicochemical. To be noted: PBS buffer, aqueous buffer, kinetic from dmso stock. In short, it runs like this: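 Compounds from 10 mM DMSO stock diluted into PBS pH 1.6 or pH 7.4 (15 μL into 485 μL), stirred 2 hours, then filtered. Filtrate quantified by LC-MS/MS against a standard of known concentration with internal standard; single determination.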

Setting [2] is: PBS pH 1.6, 25° C., read-out: Aq. Solubility at pH = 1.6.
[3] abbreviates: PBS pH 7.4, 25° C., read-out: Aq. Solubility at pH = 7.4.

Converted amounts (≈) assume the structure as drawn. Read-outs that look alike come from different tables or passages of the source.

As usually defined, the IC50 is the concentration that inhibits the measured activity by half. The solubility is the dissolved amount per volume that the medium holds. Turning to `C[C@@H](CO)n1cnc2c(-n3ccnc3)nc(-c3ccc(C(F)(F)F)cn3)cc2c1=O` [Compound 162, (S)-3-(1-hydroxypropan-2-yl)-8-(1H-imidazol-1-yl)-6-(5-(trifluoromethyl)pyridin-2-yl)pyrido[3,4-d]pyrimidin-4(3H)-one], the IC50 on AHR is under 100 nM. For the same compound, the solubility at 2 h in data set [1] (setting [2]) and in data set [1] (setting [3]) was at least 1 µM each time.
Turning to `C[C@@H](CO)n1cnc2c(-n3ccnc3)nc(-c3ccc(C(F)(F)F)nc3)cc2c1=O` [Compound 163, (S)-3-(1-hydroxypropan-2-yl)-8-(1H-imidazol-1-yl)-6-(6-(trifluoromethyl)pyridin-3-yl)pyrido[3,4-d]pyrimidin-4(3H)-one], the IC50 at AHR is under 100 nM. Further, the solubility at 2 h in data set [1] (setting [2]) and in data set [1] (setting [3]) was at least 1 µM each time.
Take `C[C@@H](CO)n1cnc2c(N3CCCCC3)nc(-c3ccc(Cl)cc3)cc2c1=O` [Compound 177, (S)-6-(4-chlorophenyl)-3-(1-hydroxypropan-2-yl)-8-(piperidin-1-yl)pyrido[3,4-d]pyrimidin-4(3H)-one]: the IC50 at AHR was under 100 nM. The results for the solubility at 2 h in data set [1] (setting [2]) and in data set [1] (setting [3]) were at least 1 µM and 0.1 to 1 µM (≈ 0.0399 to 0.399 µg/mL), respectively.
For the compound `Cc1nc(-c2cc3c(=O)n([C@@H](C)CO)cnc3c(-c3cccnc3)n2)cs1` [Compound 183, (S)-3-(1-hydroxypropan-2-yl)-6-(2-methylthiazol-4-yl)-8-(pyridin-3-yl)pyrido[3,4-d]pyrimidin-4(3H)-one], on AHR, the IC50 is over 500 nM. The solubility at 2 h in data set [1] (setting [2]) and in data set [1] (setting [3]) was at least 1 µM in each case.
